The species entered for assay [1] is Rattus norvegicus. Kind of assay: In vitro relative potency versus [DPhe12,Nle21,38]-hCRF(12-41), using rat pituitary culture assay. The class given is functional.
The species named for assay [2] is Rattus norvegicus. Kind of assay: The percent intrinsic activity, determined by level of antagonist induced secretion. It counts as functional.

Regarding `CCCC[C@H](NC(=O)[C@H](CCC(=O)O)NC(=O)[C@H](CC(C)C)NC(=O)[C@@H](NC(=O)[C@H](CCC(=O)O)NC(=O)[C@H](CCCN=C(N)N)NC(=O)[C@H](CC(C)C)NC(=O)[C@H](CC(C)C)NC(=O)[C@@H]1CCCCNC(=O)CC[C@H](NC(=O)[C@@H](N)CC(=O)O)C(=O)N[C@@H]([C@@H](C)O)C(=O)N[C@H](Cc2ccccc2)C(=O)N1)C(C)C)C(=O)N[C@@H](C)C(=O)N[C@@H](CCCN=C(N)N)C(=O)N[C@@H](C)C(=O)N[C@@H](CCC(=O)O)C(=O)N[C@@H](CCC(N)=O)C(=O)N[C@@H](CC(C)C)C(=O)N[C@@H](C)C(=O)N[C@@H](CCC(N)=O)C(=O)N[C@@H](CCC(N)=O)C(=O)N[C@@H](C)C(=O)N[C@@H](Cc1c[nH]cn1)C(=O)N[C@@H](CO)C(=O)N[C@@H](CC(N)=O)C(=O)N[C@@H](CCCN=C(N)N)C(=O)N[C@@H](CCCCN)C(=O)N[C@@H](CC(C)C)C(=O)N[C@@H](CCCC)C(=O)N[C@@H](CCC(=O)O)C(=O)N[C@H](C(=O)N[C@H](C(N)=O)[C@@H](C)CC)[C@@H](C)CC`, in the assay listed under Rattus norvegicus [1], the Relative potency came out at 0.27. Further, the IA in the assay listed under Rattus norvegicus [2] is reported as 27%.

The compound `CCCC[C@H](NC(=O)[C@H](CCC(=O)O)NC(=O)[C@H](CC(C)C)NC(=O)[C@@H](NC(=O)[C@H](CCC(=O)O)NC(=O)[C@H](CCCN=C(N)N)NC(=O)[C@H](CC(C)C)NC(=O)[C@@H]1CCCCNC(=O)CC[C@H](NC(=O)[C@H](CC(C)C)NC(=O)[C@@H](N)CC(=O)O)C(=O)N[C@H](Cc2ccccc2)C(=O)N[C@@H](Cc2c[nH]cn2)C(=O)N1)C(C)C)C(=O)N[C@@H](C)C(=O)N[C@@H](CCCN=C(N)N)C(=O)N[C@@H](C)C(=O)N[C@@H](CCC(=O)O)C(=O)N[C@@H](CCC(N)=O)C(=O)N[C@@H](CC(C)C)C(=O)N[C@@H](C)C(=O)N[C@@H](CCC(N)=O)C(=O)N[C@@H](CCC(N)=O)C(=O)N[C@@H](C)C(=O)N[C@@H](Cc1c[nH]cn1)C(=O)N[C@@H](CO)C(=O)N[C@@H](CC(N)=O)C(=O)N[C@@H](CCCN=C(N)N)C(=O)N[C@@H](CCCCN)C(=O)N[C@@H](CC(C)C)C(=O)N[C@@H](CCCC)C(=O)N[C@@H](CCC(=O)O)C(=O)N[C@H](C(=O)N[C@H](C(N)=O)[C@@H](C)CC)[C@@H](C)CC` showed a Relative potency in the assay filed under Rattus norvegicus [1] of 0.005. In the assay listed under Rattus norvegicus [2], this compound gave an IA of 29%.

The record behind these values is ChEMBL document CHEMBL1130221, “Constrained corticotropin-releasing factor antagonists with i-(i + 3) Glu-Lys bridges” (1997).
